The values below come from article PMC11271341 (Clinical Pharmacokinetics, 2024).

For one data set, the system named is OCT2/MATE1. To be noted: in vitro; pazopanib as OCT1/MATE1 inhibitor (so in the source); cited from earlier work.
A short description of data set [1]: Metformin trough plasma concentration. To be noted: n = 18. Format: in vivo, human.
The subject of data set [2] is multidrug and toxin extrusion protein 1 (MATE1). The conditions noted are these: in vitro studies; cited from earlier work.
Data set [3] deals with organic cation transporter 2 (OCT2). To be noted: in vitro studies; cited from earlier work.
For data set [4] the following is noted: exceeds the glomerular filtration rate; cited from earlier work.
The conditions of data set [5]: cited from earlier work.
The nature of data set [6]: Trifluridine plasma pharmacokinetics, three-phase crossover study in patients. Format: in vivo. To be noted: human, oral, median Tmax, range over the three phases, phases A, B and C.

Where two headings read alike, the source gives them in different places.

Turning to `N.N.[Cl][Pt][Cl]` [cisplatin], in the data set on OCT2/MATE1, the “change in cisplatin exposure when combined with pazopanib” value is “significant in vitro increase”.
For `CN(C)C(=N)N=C(N)N` [metformin], the “geometric mean Ctrough” value in data set [1] (metformin 500 mg b.i.d. in combination with trifluridine/tipiracil) was determined as 0.24 mg/L; in data set [1] (metformin monotherapy (day 14)), 0.15 mg/L.
`N=C1CCCN1Cc1nc(O)nc(O)c1Cl` [tipiracil]: the “interaction with MATE1” value in data set [2] is “substrate and inhibitor”. Besides, the “interaction with OCT2” value in data set [3] is “substrate and inhibitor”. The renal clearance in data set [4] is ~ 300 mL/min.
As for `O=c1[nH]c(=O)n([C@H]2C[C@H](O)[C@@H](CO)O2)cc1C(F)(F)F` [trifluridine], the “increase of area under the curve vs normal renal function (≥ 90 mL/min)” value in data set [5] (mild renal impairment (creatinine clearance between 60 and 89 mL/min)) was 31%; in data set [5] (moderate renal impairment (between 30 and 59 mL/min)) it was 43%. Also, in data set [6], the Tmax (commonly the time at which the peak concentration occurs) lay within 46.8 to 60 min.
